{
  "source": "patent US20130065936A1",
  "about": "“MODULATION OF BIOACTIVE EPOXY-FATTY ACID LEVELS BY PHOSPHODIESTERASE INHIBITORS” (THE REGENTS OF THE UNIVERSITY OF CALIFORNIA, priority 2010, published 2013)",
  "tested_on": "endogenous oxylipin sEH substrates and products in rat plasma",
  "assay": "Oxylipin analysis in rat plasma after sEHI / PDE inhibitor administration (LC-ESI-MS/MS);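 further: plasma from tail vein blood, oxylipins quantified by LC-ESI-MS/MS against deuterated internal standards following solid-phase extraction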",
  "format": "in vivo",
  "details": "rat plasma 45 min after s.c.; 1 mg/kg, pentoxyphilline 10 mg/kg",
  "data": [
    {"smiles": "CN(C(=O)CCCOc1ccc2[nH]c(=O)ccc2c1)C1CCCCC1", "note": "[Cilostamide]", "values": [
      {"measurement": "8(9)-EpETE", "result": 0.74, "unit": "nM"},
      {"measurement": "8(9)-EpETrE", "result": 3.13, "unit": "nM"},
      {"measurement": "8,9-DiHETE", "result": 0.27, "unit": "nM"},
      {"measurement": "8,9-DiHETrE", "result": 0.47, "unit": "nM"},
      {"measurement": "9(10)-EpOME", "result": 32.41, "unit": "nM"},
      {"measurement": "9,10-DiHOME", "result": 29.53, "unit": "nM"},
      {"measurement": "10(11)-EpDPE", "result": 4.06, "unit": "nM"},
      {"measurement": "10,11-DiHDPE", "result": 0.66, "unit": "nM"},
      {"measurement": "11(12)-EpETE", "result": 0.45, "unit": "nM"},
      {"measurement": "11(12)-EpETrE", "result": 4.44, "unit": "nM"},
      {"measurement": "11,12-DiHETE", "result": 0.43, "unit": "nM"},
      {"measurement": "11,12-DiHETrE", "result": 1.60, "unit": "nM"},
      {"measurement": "12(13)-EpOME", "result": 51.82, "unit": "nM"},
      {"measurement": "12,13-DiHOME", "result": 37.98, "unit": "nM"},
      {"measurement": "13(14)-EpDPE", "result": 2.23, "unit": "nM"},
      {"measurement": "13,14-DiHDPE", "result": 0.73, "unit": "nM"},
      {"measurement": "14(15)-EpETE", "result": 0.49, "unit": "nM"},
      {"measurement": "14(15)-EpETrE", "result": 7.71, "unit": "nM"},
      {"measurement": "14,15-DiHETE", "result": 1.24, "unit": "nM"},
      {"measurement": "14,15-DiHETrE", "result": 1.82, "unit": "nM"},
      {"measurement": "16(17)-EpDPE", "result": 2.94, "unit": "nM"},
      {"measurement": "16,17-DiHDPE", "result": 2.28, "unit": "nM"},
      {"measurement": "17(18)-EpETE", "result": 2.66, "unit": "nM"},
      {"measurement": "17,18-DiHETE", "result": 3.08, "unit": "nM"},
      {"measurement": "19(20)-EpDPE", "result": 8.95, "unit": "nM"},
      {"measurement": "19,20-DiHDPE", "result": 5.50, "unit": "nM"},
      {"measurement": "Ratio 8(9)-EpETE / 8,9-DiHETE", "result": 2.81},
      {"measurement": "Ratio 8(9)-EpETrE / 8,9-DiHETrE", "result": 6.69},
      {"measurement": "Ratio 9(10)-EpOME / 9,10-DiHOME", "result": 1.10},
      {"measurement": "Ratio 10(11)-EpDPE / 10,11-DiHDPE", "result": 6.13},
      {"measurement": "Ratio 11(12)-EpETE / 11,12-DiHETE", "result": 1.04},
      {"measurement": "Ratio 11(12)-EpETrE / 11,12-DiHETrE", "result": 2.78},
      {"measurement": "Ratio 12(13)-EpOME / 12,13-DiHOME", "result": 1.36},
      {"measurement": "Ratio 13(14)-EpDPE / 13,14-DiHDPE", "result": 3.05},
      {"measurement": "Ratio 14(15)-EpETE / 14,15-DiHETE", "result": 0.39},
      {"measurement": "Ratio 14(15)-EpETrE / 14,15-DiHETrE", "result": 4.24},
      {"measurement": "Ratio 16(17)-EpDPE / 16,17-DiHDPE", "result": 1.29},
      {"measurement": "Ratio 17(18)-EpETE / 17,18-DiHETE", "result": 0.86},
      {"measurement": "Ratio 19(20)-EpDPE / 19,20-DiHDPE", "result": 1.63},
      {"measurement": "total Di-hydroxyeicosanoid", "result": 322.82, "unit": "nM"},
      {"measurement": "total Epoxyeicosanoid", "result": 1014.12, "unit": "nM"},
      {"measurement": "total Ratio epoxy/dihydroxy eicosanoids", "result": 3.14}
    ]},
    {"smiles": "CC(=O)CCCCn1c(=O)c2c(ncn2C)n(C)c1=O", "note": "[Pentoxyphilline]", "values": [
      {"measurement": "8(9)-EpETE", "result": 1.27, "unit": "nM"},
      {"measurement": "8(9)-EpETrE", "result": 6.41, "unit": "nM"},
      {"measurement": "8,9-DiHETE", "result": 0.30, "unit": "nM"},
      {"measurement": "8,9-DiHETrE", "result": 0.54, "unit": "nM"},
      {"measurement": "9(10)-EpOME", "result": 59.92, "unit": "nM"},
      {"measurement": "9,10-DiHOME", "result": 34.24, "unit": "nM"},
      {"measurement": "10(11)-EpDPE", "result": 7.86, "unit": "nM"},
      {"measurement": "10,11-DiHDPE", "result": 0.71, "unit": "nM"},
      {"measurement": "11(12)-EpETE", "result": 0.80, "unit": "nM"},
      {"measurement": "11(12)-EpETrE", "result": 10.60, "unit": "nM"},
      {"measurement": "11,12-DiHETE", "result": 0.45, "unit": "nM"},
      {"measurement": "11,12-DiHETrE", "result": 1.77, "unit": "nM"},
      {"measurement": "12(13)-EpOME", "result": 87.05, "unit": "nM"},
      {"measurement": "12,13-DiHOME", "result": 50.89, "unit": "nM"},
      {"measurement": "13(14)-EpDPE", "result": 4.20, "unit": "nM"},
      {"measurement": "13,14-DiHDPE", "result": 0.79, "unit": "nM"},
      {"measurement": "14(15)-EpETE", "result": 0.69, "unit": "nM"},
      {"measurement": "14(15)-EpETrE", "result": 14.76, "unit": "nM"},
      {"measurement": "14,15-DiHETE", "result": 1.06, "unit": "nM"},
      {"measurement": "14,15-DiHETrE", "result": 1.73, "unit": "nM"},
      {"measurement": "16(17)-EpDPE", "result": 5.07, "unit": "nM"},
      {"measurement": "16,17-DiHDPE", "result": 2.20, "unit": "nM"},
      {"measurement": "17(18)-EpETE", "result": 3.08, "unit": "nM"},
      {"measurement": "17,18-DiHETE", "result": 2.81, "unit": "nM"},
      {"measurement": "19(20)-EpDPE", "result": 12.04, "unit": "nM"},
      {"measurement": "19,20-DiHDPE", "result": 6.00, "unit": "nM"},
      {"measurement": "Ratio 8(9)-EpETE / 8,9-DiHETE", "result": 4.15},
      {"measurement": "Ratio 8(9)-EpETrE / 8,9-DiHETrE", "result": 11.91},
      {"measurement": "Ratio 9(10)-EpOME / 9,10-DiHOME", "result": 1.75},
      {"measurement": "Ratio 10(11)-EpDPE / 10,11-DiHDPE", "result": 11.13},
      {"measurement": "Ratio 11(12)-EpETE / 11,12-DiHETE", "result": 1.79},
      {"measurement": "Ratio 11(12)-EpETrE / 11,12-DiHETrE", "result": 6.00},
      {"measurement": "Ratio 12(13)-EpOME / 12,13-DiHOME", "result": 1.71},
      {"measurement": "Ratio 13(14)-EpDPE / 13,14-DiHDPE", "result": 5.30},
      {"measurement": "Ratio 14(15)-EpETE / 14,15-DiHETE", "result": 0.66},
      {"measurement": "Ratio 14(15)-EpETrE / 14,15-DiHETrE", "result": 8.52},
      {"measurement": "Ratio 16(17)-EpDPE / 16,17-DiHDPE", "result": 2.30},
      {"measurement": "Ratio 17(18)-EpETE / 17,18-DiHETE", "result": 1.10},
      {"measurement": "Ratio 19(20)-EpDPE / 19,20-DiHDPE", "result": 2.01},
      {"measurement": "total Di-hydroxyeicosanoid", "result": 423.15, "unit": "nM"},
      {"measurement": "total Epoxyeicosanoid", "result": 497.36, "unit": "nM"},
      {"measurement": "total Ratio epoxy/dihydroxy eicosanoids", "result": 1.18}
    ]}
  ]
}
